“Also recorded” adds a separate entry of the source. Structures can show the parent of a compound that is named as a salt.
Tests used:
[1] = tested on: malonate-induced striatal lesion in rats; test: Malonate-induced striatal lesion volume (cytochrome oxidase histochemistry), oral DMF; assay type: in vivo, Sprague-Dawley rats
Procedure: Two separate experiments were conducted and are reported here.
Rats were anesthetized under Bupivacaine (2 mg/kg), Brevital (50 mg/kg, i.p.) and isoflurane anesthesia, placed in a stereotaxic frame and prepared for intrastriatal injection. A single injection of malonate was injected at a single site in the left striatum corresponding to stereotaxic coordinates at AP: […] from bregma; Lateral: 2.8 mm from midline; DV: −5.5 mm from surface of the skull at bregma. Malonate (in saline) was injected at a dose of 2.0 μmols in 2.0 μl over 4 minutes using a syringe pump. The injection needle was left in place for an additional 1.0 min following the infusion and was withdrawn slowly to minimize reflux of the infusate up the needle tract. Rats were kept warm on a heating pad until waking from anesthesia (Green and Greenamyre, 1995).
Three (Experiment 1) or four (Experiment 2) days after the malonate injection and 30 min after the last dose, all animals were sacrificed by CO2, and their brains were quickly removed and stored in 20% sucrose in PBS for at least 1 hour, then transfer them to 30% sucrose in PBS overnight. On next day, all brains were embedded in OCT and stored in −80° C. The first experiment included three treatment groups: vehicle, 30 mg/kg and 100 mg/kg, and the second experiment included four treatment groups: vehicle, 50 mg/kg, 75 mg/kg and 100 mg/kg.
Incubation medium consisted of 200 mg cytochrome C and 200 mg of 3, 3′-Diaminobenzidine tetrahydrochloride (DAB) in 500 ml of 0.1 M phosphate buffer, pH 7.4. Slides were incubated for 90 minutes at 37° C. and wash twice with PBS (2-5 min.), then removed to 4% neutral, buffered, paraformaldehyde for 20 minutes. Sections were rinsed twice with PBS (2-5 min.), then twice with distilled water (2-5 min.), dehydrated, cleared in xylene, and coverslipped.
The lesion area on each section was quantified using Open-Lab Image Analysis System. Sections were taken throughout the entire striatum and a total of twenty 25 μm sections were analyzed for each rat. Area measurements were summed and multiplied by intersectional distance (200 μm) to determine the lesion volume for each subject.
Data for lesion volume was analyzed by one way analysis of variance (ANOVA) followed by a Tukey's test to assess differences between the treatment and vehicle groups.

[2] = Tail histopathology after 5 days of once daily DMF IV tail vein dosing; assay type: in vivo, Sprague-Dawley rats; settings: 5 days of repeated once daily tail vein injections
[3] = Stability of DMF 20% Captisol solutions at ambient temperature (HPLC); assay type: physicochemical; settings: for DMF area %: 20% Captisol
Source text: Samples stored at ambient temperature were pulled at predetermined time points (0, 2 and 7 days), and analyzed by HPLC. [table]

[4] = Tail histopathology for DMF IV multi-dose tolerability; assay type: in vivo, C57BL/6 mice; settings: Study 3, DMF IV 30 mg/kg once a day for 5 consecutive days
Procedure: Tissue samples were preserved in 10% neutral buffered formalin (NBF) and then transferred to the Translational Pathology Laboratory for processing into paraffin blocks, slide preparation, and hematoxylin and eosin staining. Histopathology evaluation of the stained slides was performed by the Biogen Idec Comparative Pathology department (data not provided herein).
A CBC with differential panel was performed at 10 minutes post-last dose via facial vein bleeding, and at 2 hours after the last dose, pharmacodynamic Nrf2 transcriptional responses were analyzed in tissues from the same animals. Histopathology was also performed on regions of the tail in a pilot toxicology study.

SOD1-G93A mice = test: SOD1-G93A mouse model of ALS, oral DMF; assay type: in vivo; settings: DMF p.o. 100 mg/kg daily
Procedure: Motor performance was assessed by rotarod at day 85, 100, and 115. Health was monitored by clinical observation and body weight. […] Body weight was modestly impacted by DMF.
Thirty-two female SOD1-G93A mice were purchased from Jackson Laboratories (Line 2726). All mice were transgene positive. Sixteen mice were used per dosing group. Dosing began at day 50-55. All procedures were conducted in accordance with the NIH Guide for the Care and Use of Laboratory Animals and were approved by the Biogen Idec Institutional Animal Care and Use Committee (IACUC Protocol No. 0408-2011).
Mice were dosed once daily either with vehicle or DMF. Dosing volume was 10 ml/kg, introduced by oral gavage.
Disease onset and progression in the SOD1-G93A was monitored by three approaches. All approaches were done in a blinded fashion. Body weight was recorded on a daily basis. Mice were also inspected on a daily basis for disease onset, as defined by leg tremor or decreased hind limb flexion upon tail lift. Mice were also assessed on an accelerating rotarod test at weeks 12, 14, and 16. For this test, mice were first acclimated to a rod rotating at 2 rpm for 300 seconds once a day for two days. For the actual test, mice are placed on rod accelerating from 2 to 40 rpm over 90 seconds. Upon reaching full speed, the test continues for an additional 30 seconds. Mice were tested three times per day and the longest time recorded. Mice that were unable to remain on the rod for 20 seconds were excluded from further testing.
Mice were determined to have reached endpoint criteria for humane euthanasia when then when they failure to right from either side within 15 seconds.
For rotarod and body weight, values were compared by two-way ANOVA. Body weight was further evaluated by break point analysis. Break point analysis identifies the inflection point of a curve, by completing a series of linear regression fits. The intersection of the curve fits for the ascending and descending slopes with the minimal residual error is defined as the break point. For each mouse, the breakpoint was determined. The two groups were then compared by Student's T-test. Differences in onset and survival were tested for using the Mantel-Cox log rank test. A further test with the Cox proportional hazards test incorporating littermate status was completed.

## COC(=O)/C=C/C(=O)OC [DMF, dimethyl fumarate]
[1]; Experiment 1, DMF 100 mg/kg oral daily, n=7 per group
  Reduction of malonate induced lesion volume: 55%
[1]; Experiment 2, DMF 75 mg/kg oral daily
  Reduction of malonate-induced lesion volume: 44%
[1]; Experiment 2, DMF 100 mg/kg oral daily
  Reduction of malonate-induced lesion volume: 61%
[1]; both experiments, DMF 100 mg/kg oral daily
  Reduction of malonate-induced lesion volume: at least 55%
[2]
  Histopathology findings in the tail: no treatment-related histopathology findings in the tail
[3]; 0.2 mg/ml
  Stability of DMF in 20% Captisol solution: stable up to 2 days; also recorded: stable up to 2 d; also recorded: chemically and physically stable for 2 days
[3]; 0.2 mg/ml, 2 d
  DMF area %: 99.5 area %
[3]; 0.2 mg/ml, 7 d
  DMF area %: 97.2 area %
[3]; 0.2 mg/ml, initial
  DMF area %: 99.7 area %
[3]; 4 mg/ml, 7 d
  DMF area %: 99.4 area %
[3]; 4 mg/ml, initial
  DMF area %: 99.7 area %
[4]
  Tail histology near the injection site: changes similar to that which was observed in vehicle control mice; also recorded: did not reveal any treatment-related findings
SOD1-G93A mice
  Disease onset as assessed by limb splay: did not significantly change onset
  Survival: did not prolong survival
SOD1-G93A mice; p<0.05
  Transition from weight gain to weight loss (breakpoint analysis): significantly delayed
SOD1-G93A mice; weeks 12, 14, 16
  Rotarod performance: did not alter rotarod performance

Reference: US20180289655A1, “Methods and Compositions for the Intravenous Administration of Fumarates for the Treatment of Neurological Diseases” (Biogen MA Inc., priority 2015, published 2018)
